Measured values taken from ChEMBL document CHEMBL3045485, “Synthesis of combretastatin analogs: evaluation of in vitro anticancer activity and molecular docking studies” (Med Chem Res, 2012).

What was measured:
SF-295 [1] = test: Cytotoxicity against Homo sapiens (human) SF295 cells assessed as growth inhibition at 1 x 10^-4 mole after 48 hr by SRB assay; format: functional
IGROV-1 [2] = test: Cytotoxicity against Homo sapiens (human) IGROV1 cells assessed as growth inhibition at 5 x 10^-5 mole after 48 hr by SRB assay; format: functional
IGROV-1 [3] = test: Cytotoxicity against Homo sapiens (human) IGROV1 cells assessed as growth inhibition at 1 x 10^-4 mole after 48 hr by SRB assay; format: functional
PC-3 [4] = test: Cytotoxicity against Homo sapiens (human) PC3 cells assessed as growth inhibition at 1 x 10^-4 mole after 48 hr by SRB assay; format: functional
PC-3 [5] = test: Cytotoxicity against Homo sapiens (human) PC3 cells assessed as growth inhibition at 5 x 10^-5 mole after 48 hr by SRB assay; format: functional
MCF7 [6] = test: Cytotoxicity against Homo sapiens (human) MCF-7 cells assessed as growth inhibition at 1 x 10^-4 mole after 48 hr by SRB assay; format: functional
MCF7 [7] = test: Cytotoxicity against Homo sapiens (human) MCF-7 cells assessed as growth inhibition at 5 x 10^-5 mole after 48 hr by SRB assay; format: functional
A549 [8] = test: Cytotoxicity against Homo sapiens (human) A549 cells assessed as growth inhibition at 1 x 10^-4 mole after 48 hr by SRB assay; format: functional
A549 [9] = test: Cytotoxicity against Homo sapiens (human) A549 cells assessed as growth inhibition at 5 x 10^-5 mole after 48 hr by SRB assay; format: functional
SF-295 [10] = test: Cytotoxicity against Homo sapiens (human) SF295 cells assessed as growth inhibition at 5 x 10^-5 mole after 48 hr by SRB assay; format: functional
COLO 205 [11] = test: Cytotoxicity against Homo sapiens (human) COLO205 cells after 48 hr by SRB assay; format: functional, cell-based; settings: COLO 205, 48 h, pooled result: one value given for 7 cell lines, strains, targets or settings
THP-1 [12] = test: Cytotoxicity against Homo sapiens (human) THP1 cells assessed as growth inhibition at 1 x 10^-4 mole after 48 hr by SRB assay; format: functional
THP-1 [13] = test: Cytotoxicity against Homo sapiens (human) THP1 cells assessed as growth inhibition at 5 x 10^-5 mole after 48 hr by SRB assay; format: functional
COLO 205 [14] = test: Cytotoxicity against Homo sapiens (human) COLO205 cells assessed as growth inhibition at 1 x 10^-4 mole after 48 hr by SRB assay; format: functional
COLO 205 [15] = test: Cytotoxicity against Homo sapiens (human) COLO205 cells assessed as growth inhibition at 5 x 10^-5 mole after 48 hr by SRB assay; format: functional
SF-295 [16] = test: Cytotoxicity against Homo sapiens (human) SF295 cells assessed as growth inhibition at 1 x 10^-6 mole after 48 hr by SRB assay; format: functional
MCF7 [17] = test: Cytotoxicity against Homo sapiens (human) MCF-7 cells assessed as growth inhibition at 1 x 10^-6 mole after 48 hr by SRB assay; format: functional
THP-1 [18] = test: Cytotoxicity against Homo sapiens (human) THP1 cells assessed as growth inhibition at 2 x 10^-5 mole after 48 hr by SRB assay; format: functional
COLO 205 [19] = test: Cytotoxicity against Homo sapiens (human) COLO205 cells assessed as growth inhibition at 2 x 10^-5 mole after 48 hr by SRB assay; format: functional
PC-3 [20] = test: Cytotoxicity against Homo sapiens (human) PC3 cells assessed as growth inhibition at 1 x 10^-5 mole after 48 hr by SRB assay; format: functional
MCF7 [21] = test: Cytotoxicity against Homo sapiens (human) MCF-7 cells assessed as growth inhibition at 1 x 10^-5 mole after 48 hr by SRB assay; format: functional
IGROV-1 [22] = test: Cytotoxicity against Homo sapiens (human) IGROV1 cells assessed as growth inhibition at 1 x 10^-5 mole after 48 hr by SRB assay; format: functional
A549 [23] = test: Cytotoxicity against Homo sapiens (human) A549 cells assessed as growth inhibition at 1 x 10^-5 mole after 48 hr by SRB assay; format: functional

O=C(O)/C(=C\c1ccccc1)c1ccccc1
growth inhibition (GI) (SF-295 [1]): 25%
growth inhibition (GI) (IGROV-1 [2]): 0%
growth inhibition (GI) (IGROV-1 [3]): 0%
growth inhibition (GI) (PC-3 [4]): 4%
growth inhibition (GI) (PC-3 [5]): 0%
growth inhibition (GI) (MCF7 [6]): 41%
growth inhibition (GI) (MCF7 [7]): 29%
growth inhibition (GI) (A549 [8]): 54%
growth inhibition (GI) (A549 [9]): 52%
growth inhibition (GI) (SF-295 [10]): 14%
IC50 (COLO 205 [11]): 85.4 µM

O=C(O)/C(=C\c1cccc(O)c1O)c1ccccc1
growth inhibition (GI) (IGROV-1 [2]): 15%
growth inhibition (GI) (IGROV-1 [3]): 31%
growth inhibition (GI) (PC-3 [4]): 74%
growth inhibition (GI) (PC-3 [5]): 31%
growth inhibition (GI) (MCF7 [6]): 26%
growth inhibition (GI) (MCF7 [7]): 14%
growth inhibition (GI) (A549 [8]): 52%
growth inhibition (GI) (A549 [9]): 52%
IC50 (COLO 205 [11]): 96.5 µM

O=C(O)/C(=C\c1ccc(Cl)cc1)c1ccccc1
growth inhibition (GI) (IGROV-1 [2]): 0%
growth inhibition (GI) (IGROV-1 [3]): 0%
growth inhibition (GI) (PC-3 [4]): 42%
growth inhibition (GI) (PC-3 [5]): 14%
growth inhibition (GI) (MCF7 [6]): 22%
growth inhibition (GI) (MCF7 [7]): 10%
growth inhibition (GI) (A549 [8]): 61%
growth inhibition (GI) (A549 [9]): 61%
IC50 (COLO 205 [11]): 34 µM

CC(=O)Oc1ccccc1/C=C(\C(=O)O)c1ccccc1
growth inhibition (GI) (IGROV-1 [2]): 6%
growth inhibition (GI) (IGROV-1 [3]): 18%
growth inhibition (GI) (PC-3 [4]): 60%
growth inhibition (GI) (PC-3 [5]): 53%
growth inhibition (GI) (MCF7 [6]): 20%
growth inhibition (GI) (MCF7 [7]): 6%
growth inhibition (GI) (A549 [8]): 10%
growth inhibition (GI) (A549 [9]): 10%

O=C(O)/C(=C\c1cccc(Cl)c1)c1ccccc1
growth inhibition (GI) (IGROV-1 [2]): 0%
growth inhibition (GI) (IGROV-1 [3]): 38%
growth inhibition (GI) (PC-3 [4]): 68%
growth inhibition (GI) (PC-3 [5]): 30%
growth inhibition (GI) (MCF7 [6]): 0%
growth inhibition (GI) (MCF7 [7]): 0%
growth inhibition (GI) (A549 [8]): 32%
growth inhibition (GI) (A549 [9]): 32%

O=C(O)/C(=C\c1ccccc1Cl)c1ccccc1
growth inhibition (GI) (IGROV-1 [2]): 32%
growth inhibition (GI) (IGROV-1 [3]): 42%
growth inhibition (GI) (PC-3 [4]): 52%
growth inhibition (GI) (PC-3 [5]): 36%
growth inhibition (GI) (MCF7 [6]): 10%
growth inhibition (GI) (MCF7 [7]): 5%
growth inhibition (GI) (A549 [8]): 12%
growth inhibition (GI) (A549 [9]): 12%

O=C(O)/C(=C\c1cccc2ccccc12)c1ccccc1
growth inhibition (GI) (PC-3 [4]): 35%
growth inhibition (GI) (PC-3 [5]): 26%
growth inhibition (GI) (A549 [8]): 0%
growth inhibition (GI) (A549 [9]): 0%
IC50 (COLO 205 [11]): > 100 µM
growth inhibition (GI) (THP-1 [12]): 22%
growth inhibition (GI) (THP-1 [13]): 0%
growth inhibition (GI) (COLO 205 [14]): 70%
growth inhibition (GI) (COLO 205 [15]): 51%

COc1ccc(OC)c(/C=C(\C(=O)O)c2ccccc2)c1
growth inhibition (GI) (PC-3 [4]): 0%
growth inhibition (GI) (PC-3 [5]): 0%
growth inhibition (GI) (A549 [8]): 10%
growth inhibition (GI) (A549 [9]): 0%
growth inhibition (GI) (THP-1 [12]): 4%
growth inhibition (GI) (THP-1 [13]): 0%
growth inhibition (GI) (COLO 205 [14]): 0%
growth inhibition (GI) (COLO 205 [15]): 0%

COc1ccc(/C=C(\C(=O)O)c2ccccc2)c(OC)c1OC
growth inhibition (GI) (PC-3 [4]): 7%
growth inhibition (GI) (PC-3 [5]): 0%
growth inhibition (GI) (A549 [8]): 0%
growth inhibition (GI) (A549 [9]): 0%
growth inhibition (GI) (THP-1 [12]): 0%
growth inhibition (GI) (THP-1 [13]): 0%
growth inhibition (GI) (COLO 205 [14]): 0%
growth inhibition (GI) (COLO 205 [15]): 0%

O=C(O)/C(=C\c1ccccc1[N+](=O)[O-])c1ccccc1
growth inhibition (GI) (PC-3 [4]): 22%
growth inhibition (GI) (PC-3 [5]): 10%
growth inhibition (GI) (A549 [8]): 25%
growth inhibition (GI) (A549 [9]): 15%
growth inhibition (GI) (THP-1 [12]): 0%
growth inhibition (GI) (THP-1 [13]): 0%
growth inhibition (GI) (COLO 205 [14]): 60%
growth inhibition (GI) (COLO 205 [15]): 32%

O=C(O)/C(=C\C=C\c1ccccc1)c1ccccc1
growth inhibition (GI) (PC-3 [4]): 9%
growth inhibition (GI) (PC-3 [5]): 0%
growth inhibition (GI) (A549 [8]): 43%
growth inhibition (GI) (A549 [9]): 10%
growth inhibition (GI) (THP-1 [12]): 35%
growth inhibition (GI) (THP-1 [13]): 8%
growth inhibition (GI) (COLO 205 [14]): 44%
growth inhibition (GI) (COLO 205 [15]): 15%

COc1cc(OC)c(OC)cc1/C=C(\C(=O)O)c1ccccc1
growth inhibition (GI) (PC-3 [4]): 28%
growth inhibition (GI) (PC-3 [5]): 4%
growth inhibition (GI) (A549 [8]): 20%
growth inhibition (GI) (A549 [9]): 0%
growth inhibition (GI) (THP-1 [12]): 21%
growth inhibition (GI) (THP-1 [13]): 0%
growth inhibition (GI) (COLO 205 [14]): 16%
growth inhibition (GI) (COLO 205 [15]): 5%

COc1ccc(/C=C(\C(=O)O)c2ccccc2)cc1O
growth inhibition (GI) (SF-295 [1]): 12%
growth inhibition (GI) (IGROV-1 [2]): 8%
growth inhibition (GI) (IGROV-1 [3]): 17%
growth inhibition (GI) (PC-3 [4]): 23%
growth inhibition (GI) (PC-3 [5]): 12%
growth inhibition (GI) (MCF7 [6]): 24%
growth inhibition (GI) (MCF7 [7]): 14%
growth inhibition (GI) (A549 [8]): 20%
growth inhibition (GI) (A549 [9]): 0%
growth inhibition (GI) (SF-295 [10]): 0%

O=C(O)/C(=C\c1ccc2c(c1)OCO2)c1ccccc1
growth inhibition (GI) (SF-295 [1]): 38%
growth inhibition (GI) (IGROV-1 [2]): 0%
growth inhibition (GI) (IGROV-1 [3]): 32%
growth inhibition (GI) (PC-3 [4]): 39%
growth inhibition (GI) (PC-3 [5]): 11%
growth inhibition (GI) (MCF7 [6]): 39%
growth inhibition (GI) (MCF7 [7]): 32%
growth inhibition (GI) (A549 [8]): 45%
growth inhibition (GI) (A549 [9]): 0%
growth inhibition (GI) (SF-295 [10]): 15%

COc1cc(/C=C(\C(=O)O)c2ccccc2)cc(OC)c1OC
growth inhibition (GI) (SF-295 [1]): 25%
growth inhibition (GI) (IGROV-1 [2]): 0%
growth inhibition (GI) (IGROV-1 [3]): 1%
growth inhibition (GI) (PC-3 [4]): 22%
growth inhibition (GI) (PC-3 [5]): 10%
growth inhibition (GI) (MCF7 [6]): 63%
growth inhibition (GI) (MCF7 [7]): 54%
growth inhibition (GI) (A549 [8]): 65%
growth inhibition (GI) (A549 [9]): 21%
growth inhibition (GI) (SF-295 [10]): 13%
IC50 (COLO 205 [11]): 88 µM

COc1cccc(/C=C(\C(=O)O)c2ccccc2)c1OC
growth inhibition (GI) (SF-295 [1]): 24%
growth inhibition (GI) (IGROV-1 [2]): 6%
growth inhibition (GI) (IGROV-1 [3]): 11%
growth inhibition (GI) (PC-3 [4]): 4%
growth inhibition (GI) (PC-3 [5]): 2%
growth inhibition (GI) (MCF7 [6]): 52%
growth inhibition (GI) (MCF7 [7]): 25%
growth inhibition (GI) (A549 [8]): 89%
growth inhibition (GI) (A549 [9]): 60%
growth inhibition (GI) (SF-295 [10]): 8%
IC50 (COLO 205 [11]): 3.9 µM

COc1cccc2c1C(=O)c1c(O)c3c(c(O)c1C2=O)C[C@@](O)(C(=O)CO)C[C@@H]3O[C@H]1C[C@H](N)[C@H](O)[C@H](C)O1.Cl [DOXORUBICIN HYDROCHLORIDE]
growth inhibition (GI) (SF-295 [16]): 87%
growth inhibition (GI) (MCF7 [17]): 77%

O=c1[nH]cc(F)c(=O)[nH]1 [FLUOROURACIL]
growth inhibition (GI) (THP-1 [18]): 69%
growth inhibition (GI) (COLO 205 [19]): 74%

CO[C@@]12[C@H](COC(N)=O)C3=C(C(=O)C(C)=C(N)C3=O)N1C[C@@H]1N[C@@H]12 [MITOMYCIN]
growth inhibition (GI) (PC-3 [20]): 58%
growth inhibition (GI) (MCF7 [21]): 65%

CC(=O)O[C@H]1C(=O)[C@@]2(C)[C@H]([C@H](OC(=O)c3ccccc3)[C@]3(O)C[C@H](OC(=O)[C@H](O)[C@@H](NC(=O)c4ccccc4)c4ccccc4)C(C)=C1C3(C)C)[C@]1(OC(C)=O)CO[C@@H]1C[C@@H]2O [PACLITAXEL]
growth inhibition (GI) (IGROV-1 [22]): 66%
growth inhibition (GI) (A549 [23]): 67%
